How the values were obtained:
elastase type III = target: T1, elastase type III (Sus scrofa, UniProt P00772); assay: Inhibitory effect of elastase activity; format: biochemical; settings: EGCG 250 μM as positive control; 25° C., 15 minutes, pH 8.0
T1 construct: purchased Sigma-Aldrich, U.S.A. E0127
Description: The inhibitory effect of elastase activity of the extract of green tea cultivated by extreme light-shielding on anti-aging was measured in comparison with that of EGCG. The elastase and the substrate used herein were purchased from Sigma-Aldrich, […]0127). The inhibitory function of elastase activity was tested according to the following method. In a 96-well plate, […] (200 μL) and 50 μL of a 20 μg/mL elastase type III solution were mixed with a […] Tris-HCL buffer solution (pH 8.0). EGCG 250 μM was used as a positive control, and purified water was used as a non-treated group, which was a negative control. […] After completion of the reaction, the absorbance at the wavelength of 415 nm was measured. […] The inhibitory function of elastase was calculated according to the following Mathematical Formula 2, and the results are shown in Table 10. […] A: Absorbance at the wavelength of 415 nm in the absence of the test material and in the presence of enzyme B: Absorbance at the wavelength of 415 nm in the absence of the test material and enzyme C: Absorbance at the wavelength of 415 nm in the presence of the test material and enzyme D: Absorbance at the wavelength of 415 nm in the presence of the test material and in the absence of enzyme

collagenase (MMP-1) = assay: Collagenase (MMP-1) production in human fibroblasts (ELISA); format: cell-based; settings: 10 μg/ml, 24 hours, non-treated group = 100
Description: The collagenase production inhibitory effect of the present invention on wrinkle improvement was measured in comparison with retinoic acid.
Human fibroblasts were seeded at 5,000 cells/well in a 96-well microtiter plate filled with a Dulbecco's modified eagle's medium (DMEM) containing 2.5% fetal bovine serum and cultured in a 5% CO2 incubator at 37° C. until they grew by about 70 to 80%. The cells were treated with the extracts of Examples 1 and 2 and Comparative Examples 1 and 3 or retinoic acid at a concentration of 10 μg/ml for 24 hours, and the cell culture was collected.
The production yield of collagenase in the collected cell culture was measured using a collagenase measurement instrument commercially available (Catalog #. RPN 2610, manufactured by Amersham Pharma Inc., USA). […]
The absorbance of the yellow-colored 96-well plate was measured at 405 nm with a spectrophotometer, and the expression level of collagenase was calculated according to the following Mathematical Formula 1. At this time, the absorbance of the cell culture collected from the group not treated with the composition was considered as the control group. Expression level of collagenase (%)=Absorbance of substance-treated cell group/Absorbance of control group×100 [Mathematical Formula 1]

T1 sequence (P00772 27-266): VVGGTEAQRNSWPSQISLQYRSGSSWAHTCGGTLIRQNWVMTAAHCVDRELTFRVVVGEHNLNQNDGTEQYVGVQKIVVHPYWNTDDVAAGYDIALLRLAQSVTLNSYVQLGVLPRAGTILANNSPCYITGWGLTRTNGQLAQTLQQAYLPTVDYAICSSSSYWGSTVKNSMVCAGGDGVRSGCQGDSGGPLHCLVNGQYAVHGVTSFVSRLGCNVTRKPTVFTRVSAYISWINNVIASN

| SMILES | Inhibition level of elastase activity (elastase type III) [%] | Expression level of collagenase (collagenase (MMP-1)) [%] |
| --- | --- | --- |
| O=C(O[C@@H]1Cc2c(O)cc(O)cc2O[C@@H]1c1cc(O)c(O)c(O)c1)c1cc(O)c(O)c(O)c1 [EGCG] | 65 |  |
| CC1=C(/C=C/C(C)=C/C=C/C(C)=C/C(=O)O)C(C)(C)CCC1 [Retinoic acid, retinoic acid] |  | 75 |
